The values that follow come from patent US20250163072A1, “MACROCYCLIC COMPOUNDS FOR THE TREATMENT OF CANCER” (Hoffmann-La Roche Inc., priority 2021, published 2025).

Data set [1] addresses T1, KRAS G12C-BRAF complex (Homo sapiens (Human), UniProt P01116+P62937, G12C). The experiment in a line: KRAS-BRAF with CYPA (50 nM) interaction assay (TR-FRET), G12C. The conditions noted are these: GMPPNP loaded 6His-KRAS, GST-BRAF RBD. It is filed as binding. How it is done: (§1) In this example, TR-FRET was also used to measure the compound or compound-CYPA dependent disruption of the KRAS G12C-BRAF complex. This protocol was also used to measure disruption of KRAS G12D or KRAS G12V binding to BRAF by a compound of the invention, respectively. In assay buffer containing 25 mM HEPES PH=7.4 (4-(2-hydroxyethyl)-1-piperazineethanesulfonic acid, Thermo, 15630080), 0.002% Tween20, 0.1% BSA, 100 mM NaCl, 5 mM MgCl2, 10 μM GMPPNP (Guanosine 5'-[β,γ-imido]triphosphate trisodium salt hydrate, Sigma, G0635), tagless CYPA, GMPPNP loaded 6His-KRAS proteins, and GST-BRAF^RBD were mixed in a well of a 384-well assay plate at final concentrations of 50 nM, 6.25 nM and 1 nM, respectively. Compound was present in plate wells as a 16-point 3-fold dilution series starting at a final concentration of 10 μM and incubated for 3 hours. A mixture of MAb Anti-6His-XL665 (Cisbio, 61HISXLB) and Mab anti-GST-TB cryptate (Cisbio, 61GSTTLB) was then added at a final concentration of 6.67 nM and 0.21 nM, respectively, and the plate was incubated for an additional 1.5 hours. TR-FRET signal was read on a […] microplate reader (Ex320 nm, Em 665/615 nm). Compounds that facilitate disruption of the KRAS-BRAF complex were identified as those eliciting a decrease in the TR-FRET ratio relative to DMSO control wells.

For data set [2], the target named is KRAS G12D binding to BRAF (Homo sapiens (Human), UniProt P01116+P62937, G12D). The experiment in a line: KRAS-BRAF with CYPA (50 nM) interaction assay (TR-FRET), G12D. The conditions noted are these: GMPPNP loaded 6His-KRAS, GST-BRAF RBD. The procedure:
as §1

Data set [3] concerns the target KRAS G12V binding to BRAF (Homo sapiens (Human), UniProt P01116+P62937, G12V). Put plainly: KRAS-BRAF with CYPA (50 nM) interaction assay (TR-FRET), G12V. The conditions noted are these: GMPPNP loaded 6His-KRAS, GST-BRAF RBD. How it is done: as §1
In general terms: TR-FRET usually uses a lanthanide donor and a delayed reading to cut background.

Data set [4] relates to KRAS G12C in NCI-H358 cells. The experiment in a line: pERK inhibition assay, NCI-H358. It is filed as cell-based, human. The conditions noted are these: Homo sapiens, 4 hours incubation. The method, boiled down:
(§2)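 NCI-H358, AGS and SW620 cells in RPMI-1640/10% FBS were plated overnight, then exposed to compound (0.5% DMSO final) for 4 h. After fixation and permeabilization, phospho-ERK was quantified by in-cell ELISA (HRP secondary, TMB, OD450); IC50 from a 4-parameter sigmoidal fit.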

Data set [5] has as its system KRAS G12D in AGS cells. Put plainly: pERK inhibition assay, AGS. It is filed as cell-based, human. The settings on record: Homo sapiens, 4 hours incubation. In a few lines: as §2
Data set [6] relates to KRAS G12V in SW620. The experiment in a line: pERK inhibition assay, SW620. It is filed as cell-based, human. The settings on record: Homo sapiens, SW-620, SW620 cells, 4 hours incubation. In a few lines:
as §2

The test system of data set [7] is NCI-H358 cells. Put plainly: Cell viability assay, NCI-H358. It is filed as cell-based, human. The conditions noted are these: Homo sapiens, NCI-H358, 72 hours, Cell Counting Kit-8, read-out: G12C IC50. The method, boiled down: (§3)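 Cells were plated at 5,000 (NCI-H358) or 2,000 (AGS, SW620) per well and incubated overnight. They were then treated with compound in 0.5% DMSO for 72 h. Viability was read with CCK-8 as OD450 minus OD650 after 2 h, and IC50 came from a 4-parameter sigmoidal fit.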
In general terms: Tetrazolium assays rely on reduction of a dye to a coloured formazan, in cell work by metabolically active cells.

Data set [8] concerns AGS cells. The experiment in a line: Cell viability assay, AGS. It is filed as cell-based, human. The settings on record: Homo sapiens, 72 hours, Cell Counting Kit-8, read-out: G12D IC50. The method, boiled down: as §3
The subject of data set [9] is SW620 cells. Put plainly: Cell viability assay, SW620. It is filed as cell-based, human. The conditions noted are these: Homo sapiens, SW-620, SW620, 72 hours, Cell Counting Kit-8, read-out: G12V IC50. In a few lines: as §3
Data set [10] is described as follows: GSH reaction rates (inherent GSH reactivity). It is filed as in vitro ADME. The conditions noted are these: 1 μM compound, 5 mM GSH, 37° C.; for Remaining at 6 hr in GSH (%): pH 7.4, 6 hr; for T1/2(hour) in GSH: potassium phosphate buffer pH 7.4. How it is done: Therefore Strategy to minimize the GSH metabolism is very critical. Short T1/2 in inherent GSH reaction indicated high GSH reaction rate. Thus T1/2 in inherent GSH reaction assay was determined for the screening of candidates. Reference compounds and compounds of this invention potentially could form conjugation with GSH either through halogenated moieties substitution reaction or direct Michael addition reaction. This test was therefore performed to check GSH reactivity of listed compounds. For inherent GSH reactivity determination, compounds at 1 μM were incubated at 37° C. with and without 5 mM GSH for 0, 0.5, 1, 2, 4 and 6 h in 100 mM potassium phosphate buffer at pH 7.4. At the end of the designated time points, samples were quenched with acetonitrile containing 10 mM N-ethylmaleimide and an internal standard. Quenched samples were centrifuged, and supernatants were analyzed by LC-MS/MS for compound quantification.

For data set [11], the target named is T1, KRAS G12C-BRAF complex. The experiment in a line: KRAS G12C-BRAF NanoBit assay. It is filed as cell-based. The settings on record: HEK293 cells, SmBit-KRAS G12C and BRAF RBD-LgBit, 3 hours incubation. The procedure: This assay is to measure the ability of tested compounds in disruption of the KRAS G12C-BRAF complex at the cellular level, we established the NanoBit cellular assay in mammalian HEK293 (ATCC) cells. HEK293 cells were grown and maintained using DMEM medium (Thermo Fisher Scientific) with 10% fetal bovine serum and 1% penicillin/streptomycin. Both KRAS G12C and BRAF RBD were cloned into the NanoBit vectors ([…] vectors system, Promega) with the orientations SmBit-KRAS G12C and BRAF RBD-LgBit, respectively, and co-transfected into HEK293 cells. Cells were then selected with 100 μg/mL Hygromycin B (10687010, Thermo Fisher) and Blasticidin (5 μg/mL) for 4 weeks to get the stable cell pool. On the day of the assay, 75 nL of compound solution was presented in a 384-well assay plate as a 16-point 3-fold dilution starting from a final concentration of 30 μM in DMSO. Then cells were seeded at 10,000 cells/25 μL/well in a 384-well plate. After 3 hours of incubation, 6 μL of volume of Nano-Glo® Live Cell Substrate (Promega) was added into each well. Monitor luminescence using ultra384 model in Envision at 20 minutes. Compounds that facilitate disruption of the KRAS G12C-BRAF RBD complex were identified as those eliciting a decrease of luminescence relative to DMSO control wells.

Data set [12] can be described thus: Human hepatocytes stability assay. It is filed as in vitro ADME. The conditions noted are these: for CL_hep (Human): 1 μM compound, human hepatocytes 1×10^6 cells/mL; for Clearance Category: human hepatocytes. The procedure:
The hepatocyte stability assay measures the rate of disappearance of a compound from incubations with cryopreserved suspension hepatocytes from human. Positive controls, including Midazolam, Raloxifene and Dextromethorphan, are included in every experiment. Incubations consist of 1 μM tested compound and suspension of human hepatocytes (1×10^6 cells/mL) in supplemented Williams' E Medium with […] and 0.5% Penicillin-streptomycin. The hepatocyte suspension was incubated with intermittent shaking 900 rpm at 37° C., in a 5% CO2 incubator. The reaction was stopped by adding methanol containing internal standard (2 μM Tolbutamide) at 2, 10, 20, 40, 60 and 120 minutes after compound addition, depletion of the parent compound was monitored by LC-MS/MS analysis.

T1 sequence (P01116-2 other isoform, or with tags, fused parts or gaps G12C): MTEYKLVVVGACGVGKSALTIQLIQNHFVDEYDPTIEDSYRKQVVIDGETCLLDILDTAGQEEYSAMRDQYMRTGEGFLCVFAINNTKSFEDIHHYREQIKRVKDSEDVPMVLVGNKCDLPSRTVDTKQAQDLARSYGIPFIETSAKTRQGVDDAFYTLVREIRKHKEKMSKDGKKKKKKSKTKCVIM
T1 sequence (P62937 whole entry): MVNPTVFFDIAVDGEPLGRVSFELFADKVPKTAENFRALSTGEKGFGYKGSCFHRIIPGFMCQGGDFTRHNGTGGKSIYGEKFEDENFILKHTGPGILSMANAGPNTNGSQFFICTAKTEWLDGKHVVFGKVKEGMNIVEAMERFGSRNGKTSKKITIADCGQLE
Chain of KRAS G12D binding to BRAF (P01116-2 other isoform, or with tags, fused parts or gaps G12D): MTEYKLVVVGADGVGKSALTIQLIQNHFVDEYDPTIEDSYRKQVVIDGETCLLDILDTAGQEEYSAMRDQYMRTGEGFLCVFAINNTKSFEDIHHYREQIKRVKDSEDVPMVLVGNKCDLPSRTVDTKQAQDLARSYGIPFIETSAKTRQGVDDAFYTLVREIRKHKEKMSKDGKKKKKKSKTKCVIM
Chain of KRAS G12D binding to BRAF (P62937 whole entry): as the sequence (P62937 whole entry) above
Chain of KRAS G12V binding to BRAF (P01116-2 other isoform, or with tags, fused parts or gaps G12V): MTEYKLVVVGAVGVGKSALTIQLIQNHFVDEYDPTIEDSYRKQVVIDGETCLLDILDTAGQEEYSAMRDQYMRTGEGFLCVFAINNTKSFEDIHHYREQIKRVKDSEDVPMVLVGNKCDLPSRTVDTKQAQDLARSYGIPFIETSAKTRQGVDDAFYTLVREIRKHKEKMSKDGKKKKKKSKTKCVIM
Chain of KRAS G12V binding to BRAF (P62937 whole entry): as the sequence (P62937 whole entry) above

For the compound `CCn1c(-c2cccnc2[C@H](C)OC)c2c3cc(ccc31)-c1cc(O)cc(c1)C[C@H](NC(=O)[C@H](C(C)C)N(C)C(=O)C1CC(C=O)C1)C(=O)N1CCC[C@H](N1)C(=O)OCC(C)(C)C2` (stereo partly drawn) [Example 3, N-[(1S)-1-[[(8S,14S)-22-ethyl-4-hydroxy-(21M)-21-[2-[(1S)-1-methoxyethyl]-3-pyridyl]-18,18-dimethyl-9,15-dioxo-16-oxa-10,22,28-triazapentacyclo[18.5.2.12,6.110,14.023,27]nonacosa-1(26),2,4,6(29),20,23(27),24-heptaen-8-yl]carbamoyl]-2-methyl-propyl]-3-formyl-N-methyl-cyclobutanecarboxamide], the IC50 (commonly the concentration that gives 50% inhibition) stood at 0.001 µM in [1]; 1.03 µM in data set [2]; 0.11 µM in data set [3]; 0.009 µM in data set [4]; 0.683 µM in [5]; 0.245 µM in [6]. The IC50 in data set [7] was found to be 0.041 µM; in [8] it was 1.3 µM; in data set [9], 0.684 µM.

Consider `CO[C@@H](C)c1ncc(N2CCN(C)CC2)cc1-c1c2c3cc(ccc3n1CC(F)(F)F)-c1csc(n1)C[C@H](NC(=O)[C@H](C(C)C)N1CCCC3(CCN(C(=O)[C@H](F)Cl)C3)C1=O)C(=O)N1CCC[C@H](N1)C(=O)OCC(C)(C)C2` (stereo partly drawn) [Example 19, (2S)-2-[2-[(2R)-2-chloro-2-fluoro-acetyl]-6-oxo-2,7-diazaspiro[4.5]decan-7-yl]-N-[(7S,13S)-(20M)-20-[2-[(1S)-1-methoxyethyl]-5-(4-methylpiperazin-1-yl)-3-pyridyl]-17,17-dimethyl-8,14-dioxo-21-(2,2,2-trifluoroethyl)-15-oxa-4-thia-9,21,27,28-tetrazapentacyclo[17.5.2.12,5.19,13.022,26]octacosa-1(25),2,5(28),19,22(26),23-hexaen-7-yl]-3-methyl-butanamide], for which the “Remaining at 6 hr in GSH (%)” value in data set [10] is given as 85%. In addition, the “T1/2(hour) in GSH” value in data set [10] is recorded as “stable (If % depletion after 6 hour incubation is less than 20%, compounds were reported as stable)”. Moreover, the IC50 in [11] came out at 0.021 µM; in [4], 0.003 µM; in [5] it was 0.028 µM; in data set [6], 0.008 µM; in data set [7] it was 0.0009 µM; in data set [8], 0.018 µM. In [9], the IC50 is 0.015 µM. The “CL_hep (Human)” value in [12] was determined as 10.1 mL/min/kg. Moreover, in data set [12], the “Clearance Category” value is on record as “medium (16.24<CL_hep (mL/min/kg)>6.96 is medium clearance)”.

As for `CO[C@@H](C)c1ncc(N2CCN(C)CC2)cc1-c1c2c3cc(ccc3n1CC(F)(F)F)-c1csc(n1)C[C@H](NC(=O)[C@H](C(C)C)N(C)C(=O)[C@H]1CCN(C(=O)[C@H](F)Cl)C1)C(=O)N1CCC[C@H](N1)C(=O)OCC(C)(C)C2` (atropisomer, axis not shown; (M)) [Example 21, (3S)-1-[(2R)-2-chloro-2-fluoro-acetyl]-N-[(1S)-1-[[(7S,13S)-(20M)-20-[2-[(1S)-1-methoxyethyl]-5-(4-methylpiperazin-1-yl)-3-pyridyl]-17,17-dimethyl-8,14-dioxo-21-(2,2,2-trifluoroethyl)-15-oxa-4-thia-9,21,27,28-tetrazapentacyclo[17.5.2.12,5.19,13.022,26]octacosa-1(25),2,5(28),19,22(26),23-hexaen-7-yl]carbamoyl]-2-methyl-propyl]-N-methyl-pyrrolidine-3-carboxamide], the “Remaining at 6 hr in GSH (%)” value in data set [10] is given as 88%. Besides, the “T1/2(hour) in GSH” value in data set [10] is on record as “stable (If % depletion after 6 hour incubation is less than 20%, compounds were reported as stable)”. For the same compound, the IC50 in data set [1] was 0.021 µM; in data set [2] it was more than 10 µM; in [3], more than 10 µM; in [4], 0.001 µM; in [5], 0.014 µM; in [6], 0.005 µM. Besides, the IC50 amounted to 0.0003 µM in [7], 0.044 µM in [8] and 0.008 µM in data set [9]. The “CL_hep (Human)” value in data set [12] is less than 2.4 mL/min/kg. Besides, in data set [12], the “Clearance Category” value was “low (CL_hep (mL/min/kg)<6.96 is low clearance)”.

Regarding `CO[C@@H](C)c1ncc(N2CCN(C)CC2)cc1-c1c2c3cc(ccc3n1CC(F)(F)F)-c1csc(n1)C[C@H](NC(=O)[C@H](C(C)C)N(C)C(=O)C1(F)CCN(C(=O)[C@H](F)Cl)CC1)C(=O)N1CCC[C@H](N1)C(=O)OCC(C)(C)C2` (atropisomer, axis not shown; (M)) [Example 20, 1-[(2R)-2-chloro-2-fluoro-acetyl]-4-fluoro-N-[(1S)-1-[[(7S,13S)-(20M)-20-[2-[(1S)-1-methoxyethyl]-5-(4-methylpiperazin-1-yl)-3-pyridyl]-17,17-dimethyl-8,14-dioxo-21-(2,2,2-trifluoroethyl)-15-oxa-4-thia-9,21,27,28-tetrazapentacyclo[17.5.2.12,5.19,13.022,26]octacosa-1(25),2,5(28),19,22(26),23-hexaen-7-yl]carbamoyl]-2-methyl-propyl]-N-methyl-piperidine-4-carboxamide], the IC50 in [1] amounted to 0.011 µM; in data set [2] it was 0.415 µM; in data set [3], 1.17 µM; in data set [4], 0.001 µM; in [5], 0.011 µM; in data set [6], 0.003 µM. Also, the results for the IC50 in data set [7], in data set [8] and in data set [9] were 0.0002 µM, 0.018 µM and 0.005 µM, respectively.
